Laboratory results as given in patent US6706709B2, “Indolinone derivatives as protein kinase/phosphatase inhibitors” (Sugen, Inc., priority 2000, dated 2004).

Legend:
EGF Receptor = molecular target: T1, EGF Receptor (Homo sapiens, UniProt P00533); experiment: bio EGF (EGF Receptor ELISA); assay type: biochemical
T1 construct: expressed in transfected cells; host or cells: NIH 3T3/C7 (mouse fibroblasts engineered to express human EGF-R)
Procedure: EGF Receptor kinase activity in cells genetically engineered to express human EGF-R was measured as described below:
The following materials and reagents were used:
b. 05-101 (UBI) (a monoclonal antibody recognizing an EGFR extracellular domain).
c. Anti-phosphotyrosine antibody (anti-Ptyr) (polyclonal).
d. Detection antibody: Goat anti-rabbit lgG horse radish peroxidase conjugate, TAGO, Inc., Burlingame, Calif.
Keep solution in dark at 4° C. until used.
The following protocol was used:
1. […] Coated plates are good for up to 10 days when stored at 4° C.
2. On day of use, remove coating buffer and replace with blocking buffer (5% Carnation Instant Non-Fat Dry Milk in PBS). Incubate the plate, shaking, at room temperature (about 23° C. to 25° C.) for 30 minutes. Just prior to use, remove blocking buffer and wash plate 4 times with TBST buffer.
2. Choose dishes having 80-90% confluence for the experiment. Trypsinize cells and stop reaction by adding 10% CS DMEM medium. Suspend cells in DMEM medium (10% CS DMEM medium) and centrifuge once at 1000 rpm at room temperature for 5 minutes.
3. Resuspend cells in seeding medium (DMEM, 0.5% bovine serum), and count the cells using trypan blue. Viability above 90% is acceptable. Seed cells in DMEM medium (0.5% bovine serum) at a density of 10,000 cells per well, 100 μL per well, in a 96 well microtiter plate. Incubate seeded cells in 5% CO2 at 37° C. for about 40 hours.
1. Check seeded cells for contamination using an inverted microscope. Dilute drug stock (10 mg/ml in DMSO) 1:10 in DMEM medium, then transfer 5 μL to a test well for a final drug dilution of 1:200 and a final DMSO concentration of 1%. Control wells receive DMSO alone. Incubate in 5% CO2 at 37° C. for one hour.
2. Prepare EGF ligand: dilute stock EGF in DMEM so that upon transfer of 10 μL dilute EGF (1:12 dilution), 25 nM final concentration is attained.
3. Prepare fresh 10 ml HNTG* sufficient for 100 μL per well wherein HNTG* comprises: HNTG stock (2.0 mL), milli-Q H2O (7.3 mL), EDTA, 100 mM, pH 7.0 (0.5 mL), Na3VO4 0.5 M (0.1 mL) and Na4(P2O7), 0.2 M (0.1 mL).
5. After two hours incubation with drug, add prepared EGF ligand to cells, 10 μL per well, to yield a final concentration of 25 nM. Control wells receive DMEM alone. Incubate, shaking, at room temperature, for 5 minutes.
6. Remove drug, EGF, and DMEM. Wash cells twice with PBS. Transfer HNTG* to cells, 100 μL per well. Place on ice for 5 minutes. Meanwhile, remove blocking buffer from other ELISA plate and wash with TBST as described above.
7. With a pipette tip securely fitted to a micropipettor, scrape cells from plate and homogenize cell material by repeatedly aspirating and dispensing the HNTG* lysis buffer. Transfer lysate to a coated, blocked, and washed ELISA plate. Incubate shaking at room temperature for one hour.
8. Remove lysate and wash 4 times with TBST. Transfer freshly diluted anti-Ptyr antibody to ELISA plate at 100 μL per well. Incubate shaking at room temperature for 30 minutes in the presence of the anti-Ptyr antiserum (1:3000 dilution in TBST).
9. Remove the anti-Ptyr antibody and wash 4 times with TBST. Transfer the freshly diluted TAGO 30 anti-rabbit IgG antibody to the ELISA plate at 100 μL per well. Incubate shaking at room temperature for 30 minutes (anti-rabbit IgG antibody: 1:3000 dilution in TBST).
10. Remove detection antibody and wash 4 times with TBST. Transfer freshly prepared ABTS/H2O2 solution to ELISA plate, 100 μL per well. Incubate at room temperature for 20 minutes. ABTS/H2O2 solution: 1.2 μL 30% H2O2in 10 mL ABTS stock.
11. Stop reaction by adding 50 μL 5N H2SO4 (optional), and determine O.D. at 410 nm.
12. The maximal phosphotyrosine signal is determined by subtracting the value of the negative controls from the positive controls. The percent inhibition of phosphotyrosine content for extract-containing wells is then calculated, after subtraction of the negative controls.

GST-Flk1 = GST-Flk1 (UniProt P35918); experiment: GST-FLK-1 bioassay (bio flkGST); assay type: biochemical
Procedure: This assay analyzes the tyrosine kinase activity of GST-Flk1 on poly glu tyr peptides.
2. poly glu tyr 4:1, lyophilizate (Sigma Catalog # P0275). Prepare 1 mg/mL poly glu tyr in sterile PBS and store in 1 ml aliquots at −20° C.
3. Preparation of poly glu tyr (pEY) coated assay plates: Coat 2 μg/well of poly glu tyr (pEY) in 100 μL PBS at room temperature for 2 hours or at +4° C. overnight. Cover plates well to prevent evaporation.
4. PBS Buffer: To make 1 liter of a 1× working solution, mix […], 1.15 g NA2HPO4, 0.2 g KCl and 8 g NaCl in approx. 900 mL dH2O. When all reagents have dissolved, adjust the pH to 7.2 with HCl. Bring total volume to 1L with dH2O.
5. PBS-Tw Buffer: To 1L of PBS Buffer, add […] Tween-20. Stir until dissolved.
6. TBB-Blocking Buffer: To make one liter of a 1× working solution, mix 1.21 g TRIS, 8.77 g NaCl, 1 mL TWEEN-20 in approximately 900 mL dH2O. Adjust pH to 7.2 with HCl. Add 10 g BSA, stir to dissolve. Bring total volume to 1 L with dH2O. Filter to remove particulate matter.
7. 1% BSA in PBS: To make a 1× working solution, add 10 g BSA to approx. 990 mL PBS buffer, stir to dissolve. Adjust total volume to 1 L with PBS buffer, filter to remove particulate matter.
9. GST-Flk1cd purified from sf9 recombinant baculovirus transformation.
13. Kinase Dilution Buffer (KDB): Mix 10 mL Hepes (pH 7.5), 1 mL of 5 M NaCl, 40 μL of 100 mM NaVO4 and 0.4 mL of 5% BSA in dH2O with 88.56 mL of dH2O.
14. NUNC-96-well V bottom polypropylene plates Applied Scientific Catalog # AS-72092
15. EDTA: Mix 14.12 g ethylenediaminetetraacetic acid (EDTA) to approx. 70 mL dH2O. Add 10N NaOH until EDTA dissolves. Adjust pH to 8.0. Adjust total volume to 100 mL with dH2O.
16. 1° Antibody Dilution Buffer: Mix 10 mL of 5% BSA in PBS buffer with 89.5 mL TBSTw.
17. Anti-phosphotyrosine monoclonal conjugated to horseradish peroxidase (PY99 HRP, Santa Cruz Biotech).
18. 2,2′-Azino-bis(3-ethylbenzthiazoline-6-sulfonic acid (ABTS, Moss, Cat. No. ABST).
1. Coat Corning 96 well ELISA plates with 2 μg of polyEY peptide in sterile PBS as described in step 3 of Materials and Reagents.
2. Remove unbound liquid from wells by inverting plate. Wash once with TBSTw. Pat the plate on a paper towel to remove excess liquid.
3. Add 100 μL of 1% BSA in PBS to each well. Incubate, with shaking, for 1 hr. at room temperature.
5. Soak wells with 50 mM Hepes pH7.5 (150 μL/well).
6. Dilute test compound with dH2O/4% DMSO to 4 times the desired final assay concentration in 96-well polypropylene plates.
7. Add 25 μL diluted test compound to ELISA plate.
8. Add 25 μL of 40 mM MnCl2 with 4×ATP (2 μM) to all wells.
9. Add 25 μL 0.5 M EDTA to negative control wells.
10. Dilute GST-Flk1 0.005 μg (5 ng)/well in KDB. For 50 ml KDB add 100 μL of 0.050 mg/mL GST-Flk1 enzyme.
11. Add 50 μL of diluted enzyme to each well.
12. Incubate, with shaking, for 15 minutes at room temperature.
13. Stop reaction by adding 50 μL of 250 mM EDTA (pH 8.0).
14. Wash 3× with TBSTw and pat plate on paper towel to remove excess liquid.
15. Add 100 μL per well anti-phosphotyrosine HRP conjugate, 1:5,000 dilution in antibody dilution buffer. Incubate, with shaking for 90 min. at room temperature.
16. Wash as described above in step 14.
17. Add 100 μL of room temperature ABTS solution to each well.
18. Incubate, with shaking, for 10 to 15 minutes. Remove any bubbles.
19. Stop reaction by adding 20 μL of 10% SDS.
20. Read assay on Dynatech MR7000 ELISA reader: test filter at 410 nM; reference filter at 630 nM.

T1 sequence (P00533 25-1210): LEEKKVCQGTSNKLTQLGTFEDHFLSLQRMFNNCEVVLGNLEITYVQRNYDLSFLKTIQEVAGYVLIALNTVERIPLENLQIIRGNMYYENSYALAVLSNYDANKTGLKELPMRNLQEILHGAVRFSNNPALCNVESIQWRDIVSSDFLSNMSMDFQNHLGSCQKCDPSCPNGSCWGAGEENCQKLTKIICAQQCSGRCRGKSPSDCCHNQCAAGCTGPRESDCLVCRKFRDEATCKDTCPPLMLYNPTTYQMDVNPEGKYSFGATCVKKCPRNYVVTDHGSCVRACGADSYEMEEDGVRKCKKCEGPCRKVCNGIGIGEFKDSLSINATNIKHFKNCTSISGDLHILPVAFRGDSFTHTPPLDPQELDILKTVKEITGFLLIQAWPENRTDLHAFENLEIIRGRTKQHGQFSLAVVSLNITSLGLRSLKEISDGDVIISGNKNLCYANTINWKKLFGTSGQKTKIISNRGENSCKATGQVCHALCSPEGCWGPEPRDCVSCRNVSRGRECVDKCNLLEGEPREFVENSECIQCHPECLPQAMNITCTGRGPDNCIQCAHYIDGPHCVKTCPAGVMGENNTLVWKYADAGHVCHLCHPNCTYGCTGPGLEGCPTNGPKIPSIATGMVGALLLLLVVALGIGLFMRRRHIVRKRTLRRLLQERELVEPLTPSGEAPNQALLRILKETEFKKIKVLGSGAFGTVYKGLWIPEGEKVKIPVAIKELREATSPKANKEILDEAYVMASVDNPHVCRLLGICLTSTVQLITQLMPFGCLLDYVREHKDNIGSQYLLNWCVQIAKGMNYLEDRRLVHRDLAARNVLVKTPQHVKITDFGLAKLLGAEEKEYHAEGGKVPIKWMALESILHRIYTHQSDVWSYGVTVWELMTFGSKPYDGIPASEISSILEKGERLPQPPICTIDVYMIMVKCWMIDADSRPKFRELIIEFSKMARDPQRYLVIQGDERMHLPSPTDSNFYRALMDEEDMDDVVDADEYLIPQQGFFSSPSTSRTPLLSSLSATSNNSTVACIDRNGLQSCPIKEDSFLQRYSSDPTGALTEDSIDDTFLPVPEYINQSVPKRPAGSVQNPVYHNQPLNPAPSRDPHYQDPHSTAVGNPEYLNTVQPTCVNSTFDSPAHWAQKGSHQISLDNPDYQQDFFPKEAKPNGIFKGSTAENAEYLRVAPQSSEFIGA

Row | IC50 (EGF Receptor) [µM] | IC50 (GST-Flk1) [µM] | SMILES
1 | 8.2 | < 0.009 | O=C1Nc2cccc(CCO)c2C1=Cc1cc2cc(OCCN3CCOCC3)ccc2[nH]1 [IN-033, 4-(2-hydroxy-ethyl)-3-[5-(2-morpholin-4-yl-ethoxy)-1H-indol-2-ylmethylene]-1,3-dihydro-indol-2-one]
2 | > 20 | 0.63 | O=C1Nc2ccc(S(=O)(=O)Nc3cccc(Cl)c3)cc2C1=Cc1cc2cc(OCCN3CCOCC3)ccc2[nH]1 [IN-059, 3-[5-(2-morpholin-4-yl-ethoxy)-1H-indol-2-ylmethylene]-2-oxo-2,3-dihydro-1H-indole-5-sulfonic acid (3-chloro-phenyl)-amide]
3 | 9.55 | 0.16 | CCN(CC)CCOc1ccc2[nH]c(C=C3C(=O)Nc4ccc(-c5ccccc5)cc43)cc2c1 [IN-019, 3-[5-(2-diethylamino-ethoxy)-1H-indol-2-ylmethylene]-5-phenyl-1,3-dihydro-indol-2-one]
4 | 1.69 | 0.18 | O=C1Nc2ccc(S(=O)(=O)Nc3ccccc3)cc2C1=Cc1cc2cc(OCCN3CCCC3)ccc2[nH]1 [IN-044, 2-oxo-3-[5-(2-pyrrolidin-1-yl-ethoxy)-1H-indol-2-ylmethylene]-2,3-dihydro-1H-indole-5-sulfonic acid phenylamide]
5 | > 20 | 0.24 | O=C1Nc2cc(C(=O)O)ccc2C1=Cc1cc2cc(OCCN3CCCC3)ccc2[nH]1 [IN-023, 2-oxo-3-[5-(2-pyrrolidin-1-yl-ethoxy)-1H-indol-2-ylmethylene]-2,3-dihydro-1H-indole-6-carboxylic acid]
6 | > 20 | 1.47 | O=C1Nc2ccc(-c3ccccc3)cc2C1=Cc1cc2cc(OCCN3CCOCC3)ccc2[nH]1 [IN-032, 3-[5-(2-morpholin-4-yl-ethoxy)-1H-indol-2-ylmethylene]-5-phenyl-1,3-dihydro-indol-2-one]
7 | > 100 | 1.95 | CN(C)CCOc1ccc2[nH]c(C=C3C(=O)Nc4cc(-c5ccccc5)ccc43)cc2c1 [IN-012, 3-[5-(2-dimethylamino-ethoxy)-1H-indol-2-ylmethylene]-6-phenyl-1,3-dihydro-indol-2-one]
8 | > 20 | 8.49 | O=C1Nc2ccc(S(=O)(=O)N3CCc4ccccc43)cc2C1=Cc1cc2cc(OCCN3CCOCC3)ccc2[nH]1 [IN-058, 5-(2,3-dihydro-indole-1-sulfonyl)-3-[5-(2-morpholin-4-yl-ethoxy)-1H-indol-2-ylmethylene]-1,3-dihydro-indol-2-one]
9 | > 100 | 2.33 | CNS(=O)(=O)c1ccc2c(c1)C(=Cc1ccc3[nH]ccc3c1)C(=O)N2 [IN-070, 3-(1H-indol-5-ylmethylene)-2-oxo-2,3-dihydro-1H-indole-5-sulfonic acid methylamide]
10 | > 20 | 17.8 | O=C1Nc2ccc(S(=O)(=O)N3CCc4cc(Br)ccc43)cc2C1=Cc1cc2cc(OCCN3CCOCC3)ccc2[nH]1 [IN-064, 5-(5-bromo-2,3-dihydro-indole-1-sulfonyl)-3-[5-(2-morpholin-4-yl-ethoxy)-1H-indol-2-ylmethylene]-1,3-dihydro-indol-2-one]
11 | 4.38 | 0.13 | O=C1Nc2ccc(S(=O)(=O)Nc3ccc(Cl)cc3F)cc2C1=Cc1cc2cc(OCCN3CCCC3)ccc2[nH]1 [IN-049, 2-oxo-3-[5-(2-pyrrolidin-1-yl-ethoxy)-1H-indol-2-ylmethylene]-2,3-dihydro-1H-indole-5-sulfonic acid (4-chloro-2-fluoro-phenyl)-amide]
12 | 3.5 | 1.5 | CC(C)NS(=O)(=O)c1ccc2c(c1)C(=Cc1cc3cc(OCCN4CCOCC4)ccc3[nH]1)C(=O)N2 [IN-055, 3-[5-(2-morpholin-4-yl-ethoxy)-1H-indol-2-ylmethylene]-2-oxo-2,3-dihydro-1H-indole-5-sulfonic acid isopropylamide]
13 | > 20 | < 0.01 | O=C1Nc2cccc(CCO)c2C1=Cc1cc2cc(OCCN3CCCC3)ccc2[nH]1 [IN-024, 4-(2-hydroxy-ethyl)-3-[5-(2-pyrrolidin-1-yl-ethoxy)-1H-indol-2-ylmethylene]-1,3-dihydro-indol-2-one]
